Measured values from ChEMBL document CHEMBL1150466, “Studies on the active conformation of NK1 antagonist CGP 49823. Part 1. Synthesis of conformationally restricted analogs” (Bioorg Med Chem Lett, 1997).

target: Substance-P receptor (Homo sapiens, UniProt P25103); test: Tested for the inhibitory potency against Neurokinin 1 NK1 receptor
Sequence (P25103 whole entry): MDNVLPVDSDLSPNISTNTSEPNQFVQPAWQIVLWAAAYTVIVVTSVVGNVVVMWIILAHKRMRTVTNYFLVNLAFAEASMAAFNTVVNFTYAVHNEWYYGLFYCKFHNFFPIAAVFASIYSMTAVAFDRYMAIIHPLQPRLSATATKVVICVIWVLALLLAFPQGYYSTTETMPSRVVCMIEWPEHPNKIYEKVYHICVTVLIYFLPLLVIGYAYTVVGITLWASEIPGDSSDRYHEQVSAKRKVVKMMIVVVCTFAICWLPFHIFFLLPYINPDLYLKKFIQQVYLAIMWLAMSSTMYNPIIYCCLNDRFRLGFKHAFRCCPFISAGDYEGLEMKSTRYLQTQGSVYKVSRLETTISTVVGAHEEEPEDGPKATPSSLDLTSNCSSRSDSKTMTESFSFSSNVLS

Row | IC50 [nM] | SMILES
1 | 44 | Cc1cc(C)cc(C(=O)N2C3CC(NCc4ccnc5ccccc45)CC2C(c2ccccc2)C3)c1 (racemic; form 1)
2 | 1000 | Cc1cc(C)cc(C(=O)N2C3C=C(c4ccccc4)C2CC(NCc2ccnc4ccccc24)C3)c1 (racemic)
3 | 640 | Cc1cc(C)cc(C(=O)N2C3CC(NCc4ccnc5ccccc45)CC2C(c2ccccc2)C3)c1 (racemic; form 2)
